Laboratory results from ChEMBL document CHEMBL1201861, “Genomics of Drug Sensitity in Cancer screening data, Wellcome Trust Sanger Institute”.

What was measured:
Test in all cases: cells
Format in all cases: functional, cell-based, Homo sapiens
D-336MG = conditions: Homo sapiens, D-336MG
Description: SANGER: Inhibition of human D-336MG cell growth in a cell viability assay.

DK-MG = conditions: Homo sapiens, DK-MG;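 further: growth inhibition of DK-MG cells, read out with a cell viability assay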
Description: SANGER: Inhibition of human DK-MG cell growth in a cell viability assay.

DMS-153 = conditions: Homo sapiens, DMS-153
Description: SANGER: Inhibition of human DMS-153 cell growth in a cell viability assay.

EB-3 = conditions: Homo sapiens, EB-3;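 further: human EB-3 cells, growth inhibition read out via a cell viability assay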
Description: SANGER: Inhibition of human EB-3 cell growth in a cell viability assay.

ECC4 = conditions: Homo sapiens, ECC4;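 further: growth inhibition of ECC4 cells, read out with a cell viability assay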
Description: SANGER: Inhibition of human ECC4 cell growth in a cell viability assay.

ESS-1 = conditions: Homo sapiens, ESS-1;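 further: growth inhibition of human ESS-1 cells, read out by a cell viability assay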
Description: SANGER: Inhibition of human ESS-1 cell growth in a cell viability assay.

FaDu = conditions: Homo sapiens, FaDu;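 further: cell viability readout of growth inhibition in FaDu cells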
Description: SANGER: Inhibition of human FADU cell growth in a cell viability assay.

G-401 = conditions: Homo sapiens, G-401
Description: SANGER: Inhibition of human G-401 cell growth in a cell viability assay.

GDM-1 = conditions: Homo sapiens, GDM-1;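 further: cell viability readout used to measure growth inhibition of human GDM-1 cells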
Description: SANGER: Inhibition of human GDM-1 cell growth in a cell viability assay.

H4 = conditions: Homo sapiens, H4
Description: SANGER: Inhibition of human H4 cell growth in a cell viability assay.

HCC1806 = conditions: Homo sapiens, HCC1806;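 further: growth inhibition of the cancer cell line, determined with a cell viability assay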
Description: SANGER: Inhibition of human HCC1806 cell growth in a cell viability assay.

HPAF-II = conditions: Homo sapiens, HPAF-II;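 further: growth inhibition of HPAF-II cells, read out with a cell viability assay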
Description: SANGER: Inhibition of human HPAF-II cell growth in a cell viability assay.

HTC-C3 = conditions: Homo sapiens, HTC-C3;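 further: inhibition of cell growth, read out with a cell viability assay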
Description: SANGER: Inhibition of human HTC-C3 cell growth in a cell viability assay.

JIYOYE = conditions: Homo sapiens, JIYOYE
Description: SANGER: Inhibition of human JiyoyeP-2003 cell growth in a cell viability assay.

KARPAS-422 = conditions: Homo sapiens, KARPAS-422
Description: SANGER: Inhibition of human KARPAS-422 cell growth in a cell viability assay.

KMS-12-PE = conditions: Homo sapiens, KMS-12-PE;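 further: growth inhibition of human KMS-12-PE cells, measured with a cell viability assay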
Description: SANGER: Inhibition of human KMS-12-PE cell growth in a cell viability assay.

KYSE-140 = conditions: Homo sapiens, KYSE-140;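 further: cell viability assay measuring growth inhibition in human KYSE-140 cells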
Description: SANGER: Inhibition of human KYSE-140 cell growth in a cell viability assay.

KYSE-450 = conditions: Homo sapiens, KYSE-450;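 further: cell growth inhibition measured by a viability assay in human KYSE-450 cells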
Description: SANGER: Inhibition of human KYSE-450 cell growth in a cell viability assay.

LK-2 = conditions: Homo sapiens, LK-2;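 further: growth inhibition of LK-2 cells, read out with a viability assay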
Description: SANGER: Inhibition of human LK-2 cell growth in a cell viability assay.

LP-1 = conditions: Homo sapiens, LP-1;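 further: growth inhibition of human LP-1 cells, with the read-out taken from a cell viability assay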
Description: SANGER: Inhibition of human LP-1 cell growth in a cell viability assay.

MC-IXC = conditions: Homo sapiens, MC-IXC;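 further: growth inhibition of MC-IXC cells, read out with a cell viability assay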
Description: SANGER: Inhibition of human MC-IXC cell growth in a cell viability assay.

MG-63 = conditions: Homo sapiens, MG-63;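 further: growth inhibition of human MG-63 cells, read out with a cell viability assay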
Description: SANGER: Inhibition of human MG-63 cell growth in a cell viability assay.

MKN-45 = conditions: Homo sapiens, MKN-45;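 further: growth inhibition of human MKN-45 cells, measured with a cell viability assay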
Description: SANGER: Inhibition of human MKN45 cell growth in a cell viability assay.

NCI-H1792 = conditions: Homo sapiens, NCI-H1792;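 further: growth inhibition of human NCI-H1792 cells, read out as cell viability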
Description: SANGER: Inhibition of human NCI-H1792 cell growth in a cell viability assay.

NCI-H1793 = conditions: Homo sapiens, NCI-H1793;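 further: cell growth inhibition, read out by a cell viability assay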
Description: SANGER: Inhibition of human NCI-H1793 cell growth in a cell viability assay.

NCI-H2009 = conditions: Homo sapiens, NCI-H2009;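 further: cell viability assay measuring inhibition of NCI-H2009 cell growth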
Description: SANGER: Inhibition of human NCI-H2009 cell growth in a cell viability assay.

NCI-H2122 = conditions: Homo sapiens, NCI-H2122;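 further: growth inhibition of the cells, read out with a cell viability assay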
Description: SANGER: Inhibition of human NCI-H2122 cell growth in a cell viability assay.

NCI-H2405 = conditions: Homo sapiens, NCI-H2405;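 further: growth inhibition of the human cell line, read out with a cell viability assay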
Description: SANGER: Inhibition of human NCI-H2405 cell growth in a cell viability assay.

NCI-H460 = conditions: Homo sapiens, NCI-H460;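 further: cell viability assay scoring growth inhibition of human NCI-H460 cells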
Description: SANGER: Inhibition of human NCI-H460 cell growth in a cell viability assay.

NCI-H650 = conditions: Homo sapiens, NCI-H650;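 further: growth inhibition of NCI-H650 cells, read out by a viability assay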
Description: SANGER: Inhibition of human NCI-H650 cell growth in a cell viability assay.

P12-Ichikawa = conditions: Homo sapiens, P12-Ichikawa
P31-FUJ = conditions: Homo sapiens, P31-FUJ;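 further: growth inhibition of P31-FUJ cells, read out with a viability assay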
Description: SANGER: Inhibition of human P31-FUJ cell growth in a cell viability assay.

RT-112 = conditions: Homo sapiens, RT-112
Description: SANGER: Inhibition of human RT-112 cell growth in a cell viability assay.

SK-N-AS = conditions: Homo sapiens, SK-N-AS;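 further: growth inhibition of human SK-N-AS cells, measured with a cell viability assay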
Description: SANGER: Inhibition of human SK-N-AS cell growth in a cell viability assay.

SNU-C1 = conditions: Homo sapiens, SNU-C1;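 further: growth inhibition of SNU-C1 human cells, read out by a cell viability assay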
Description: SANGER: Inhibition of human SNU-C1 cell growth in a cell viability assay.

SW1088 = conditions: Homo sapiens, SW1088;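 further: growth inhibition of human SW1088 cells, read out by a cell viability assay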
Description: SANGER: Inhibition of human SW1088 cell growth in a cell viability assay.

SW1710 = conditions: Homo sapiens, SW1710;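 further: growth inhibition of SW1710 cells, determined with a cell viability assay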
Description: SANGER: Inhibition of human SW1710 cell growth in a cell viability assay.

SW837 = conditions: Homo sapiens, SW837;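 further: growth inhibition of SW837 cells, determined with a cell viability assay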
Description: SANGER: Inhibition of human SW837 cell growth in a cell viability assay.

769-P = conditions: Homo sapiens, 769-P
Description: SANGER: Inhibition of human 769-P cell growth in a cell viability assay.

AGS = conditions: Homo sapiens, AGS;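 further: growth inhibition of AGS cells, determined with a cell viability assay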
Description: SANGER: Inhibition of human AGS cell growth in a cell viability assay.

ARH-77 = conditions: Homo sapiens, ARH-77;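 further: growth inhibition of ARH-77 cells, read out by a cell viability assay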
Description: SANGER: Inhibition of human ARH-77 cell growth in a cell viability assay.

BOKU = conditions: Homo sapiens, BOKU;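 further: growth inhibition of the human BOKU cell line, read out by a cell viability assay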
Description: SANGER: Inhibition of human BOKU cell growth in a cell viability assay.

CAL-27 = conditions: Homo sapiens, CAL-27;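 further: Viability-based readout, IC50 reflecting inhibition of CAL-27 cell growth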
Description: SANGER: Inhibition of human CAL-27 cell growth in a cell viability assay.

CAL-39 = conditions: Homo sapiens, CAL-39;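 further: cell viability assay measuring growth inhibition of CAL-39 cells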
Description: SANGER: Inhibition of human CAL-39 cell growth in a cell viability assay.

CAL-51 = conditions: Homo sapiens, CAL-51;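 further: human CAL-51 cell line, growth inhibition read out via a cell viability assay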
Description: SANGER: Inhibition of human CAL-51 cell growth in a cell viability assay.

CAL-72 = conditions: Homo sapiens, CAL-72;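 further: cell viability assay measuring inhibition of proliferation in the CAL-72 cell line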
Description: SANGER: Inhibition of human CAL-72 cell growth in a cell viability assay.

UACC-893 = conditions: Homo sapiens, UACC-893
Description: SANGER: Inhibition of human UACC-893 cell growth in a cell viability assay.

YAPC = conditions: Homo sapiens, YAPC;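 further: growth inhibition of YAPC cells, measured with a cell viability assay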
Description: SANGER: Inhibition of human YAPC cell growth in a cell viability assay.

YKG-1 = conditions: Homo sapiens, YKG-1;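 further: cell growth inhibition, read out with a viability assay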
Description: SANGER: Inhibition of human YKG-1 cell growth in a cell viability assay.

Structure (SMILES): N#Cc1c(O)c2c(-c3ccc(-c4ccccc4O)cc3)csc2[nH]c1=O
- IC50 (D-336MG): > 1020 nM
- IC50 (DK-MG): > 1020 nM
- IC50 (DMS-153): 373 nM
- IC50 (EB-3): 293 nM
- IC50 (ECC4): 509 nM
- IC50 (ESS-1): > 1020 nM
- IC50 (FaDu): > 1020 nM
- IC50 (G-401): > 1020 nM
- IC50 (GDM-1): 25.5 nM
- IC50 (H4): > 1020 nM
- IC50 (HCC1806): > 1020 nM
- IC50 (HPAF-II): > 1020 nM
- IC50 (HTC-C3): > 1020 nM
- IC50 (JIYOYE): 83.7 nM
- IC50 (KARPAS-422): 344 nM
- IC50 (KMS-12-PE): 419 nM
- IC50 (KYSE-140): > 1020 nM
- IC50 (KYSE-450): > 1020 nM
- IC50 (LK-2): > 1020 nM
- IC50 (LP-1): > 1020 nM
- IC50 (MC-IXC): > 1020 nM
- IC50 (MG-63): > 1020 nM
- IC50 (MKN-45): > 1020 nM
- IC50 (NCI-H1792): > 1020 nM
- IC50 (NCI-H1793): > 1020 nM
- IC50 (NCI-H2009): > 1020 nM
- IC50 (NCI-H2122): > 1020 nM
- IC50 (NCI-H2405): > 1020 nM
- IC50 (NCI-H460): > 1020 nM
- IC50 (NCI-H650): > 1020 nM
- IC50 (P12-Ichikawa): 489 nM
- IC50 (P31-FUJ): > 1020 nM
- IC50 (RT-112): > 1020 nM
- IC50 (SK-N-AS): > 1020 nM
- IC50 (SNU-C1): > 1020 nM
- IC50 (SW1088): > 1020 nM
- IC50 (SW1710): > 1020 nM
- IC50 (SW837): > 1020 nM
- IC50 (769-P): > 1020 nM
- IC50 (AGS): > 1020 nM
- IC50 (ARH-77): 141 nM
- IC50 (BOKU): > 1020 nM
- IC50 (CAL-27): > 1020 nM
- IC50 (CAL-39): > 1020 nM
- IC50 (CAL-51): > 1020 nM
- IC50 (CAL-72): > 1020 nM
- IC50 (UACC-893): > 1020 nM
- IC50 (YAPC): > 1020 nM
- IC50 (YKG-1): > 1020 nM
